Each structure is given as a SMILES string.

Experiment [1] concerns the target T1, E. coli-expressed ΔK280 TauRD protein (Homo sapiens, UniProt P10636, DEL597-597).
T1 construct: TauRD (Q^244-E^372 of Tau, NP_005901) aggregation; N-terminal Met (N); made in house; host or cells: E. coli
Put plainly: Thioflavin T fluorescence ΔK280 TauRD aggregation assay. The class given is biochemical. The conditions noted are these: TauRD protein 20 μM, 48 h at 37 °C; read-out: EC50 inhibiting ΔK280 TauRD aggregation. As for the experimental part:
The anti-aggregation activity of congo red (positive control) and ZN/VB compounds (5–20 μM) was assessed using E. coli-expressed ΔK280 TauRD protein [33] and thioflavin T (Sigma-Aldrich) fluorescence assay. The trend of ΔK280 TauRD amyloid aggregate formation depicted with enhanced and red-shifted fluorescence was recorded by a FLx800 microplate fluorescence reader (BioTek Instruments), where the procedure was previously reported in detail.

In experiment [2] the test system is ΔK280 TauRD-DsRed SH-SY5Y cells. The experiment can be described thus: High-content neurite outgrowth analysis (TUBB3 stain). The class given is cell-based, human. As to conditions: 10 μM. As for the experimental part: ΔK280 TauRD-DsRed SH-SY5Y cells were plated in the presence of 10 μM retinoid acid (RA; Sigma-Aldrich) to promote neuronal differentiation. The next day, cells were added with congo red or ZN/VB compounds (2–10 μM) for 8 h pretreatment, followed by inducing ΔK280 TauRD-DsRed expression with doxycycline (2 μg/mL). On day 8, cell nuclei were stained with Hoechst 33342 (0.1 μg/mL; Thermo Scientific), and cell images acquired using ImageXpress Micro Confocal High-Content Imaging System (Molecular Devices, San Jose, CA, USA) with DAPI (4′,6-diamidino-2-phenylindole, for nuclei) and TRITC (tetramethylrhodamine, for DsRed) fluorescence filter sets. To detect ROS changes, 10 μM compound-treated cells were stained with Hoechst 33342 and 2′,7′-dichlorodihydrofluorescein diacetate (H2DCFDA, 10 μM) fluorescein (Invitrogen, Carlsbad, CA, USA), and cell images captured using DAPI and FITC (fluorescein isothiocyanate, for DCF) filters. For assessing differential neurite outgrowth, 10 μM compound-treated cells were fixed (paraformaldehyde, 4%), permeabilized (Triton X-100, 0.3%), and stained with class III β-tubulin (TUBB3, 1:1000) primary antibody (#802001, BioLegend, San Diego, CA, USA), followed by donkey anti-rabbit Alexa Fluor® 555 secondary antibody (1:1000; #A-31572, Invitrogen) and DAPI (0.1 μg/mL; Sigma-Aldrich) stains. The nuclei and neurite images were acquired with DAPI and TRITC fluorescence filters, respectively. All analyses of images were performed using MetaXpress software (Molecular Device).

In the next experiment the test system is caspase-6. Put plainly: Caspase-6 activity assay in cell lysates. The class given is cell-based, human. As to conditions: uninduced = 100%, induced untreated 110.5%. How it is done:
After being compounds-treated and RA-differentiated, cells were collected for caspase-1/6 and AChE activity measurements. Cells were lysed in lysis buffer with repeated freeze/thaw cycles and protein concentration in cell lysates quantitated. Types of substrates applied to detect each caspase’s activity were: YVAD-AFC for caspase-1 and VEID-AFC for caspase-6 (BioVision, Milpitas, CA, USA). The reaction mixtures were incubated for 1.5 h at 37 °C according to the manufacturer’s instructions. The fluorescence intensities with excitation/emission wavelengths at 400/505 nm were recorded by a FLx800 microplate fluorescence reader (BioTek Instruments). An AChE activity assay was performed according to the manufacturer’s instructions (Sigma-Aldrich), as described in the Ref. [28]. The mixture was incubated for 2–10 min at room temperature, and absorbance at 412 nm wavelength was measured by Multiskan™ GO Microplate Spectrophotometer (Thermo Scientific).

T1 sequence (P10636 with tags, fused parts or gaps isoform P10636-8 DEL280-280): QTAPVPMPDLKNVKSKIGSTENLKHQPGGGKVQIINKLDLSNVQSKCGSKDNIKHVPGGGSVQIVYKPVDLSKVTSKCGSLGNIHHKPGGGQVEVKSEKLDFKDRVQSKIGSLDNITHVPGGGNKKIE

As to `O=C(/C=C/c1ccccc1O)c1c(O)c2ccccc2oc1=O` [ZN-015, (E)-4-hydroxy-3-(3-(2-hydroxyphenyl)acryloyl)-2H-chromen-2-one], in experiment [1], the EC50 (as a rule, the concentration that produces a half-maximal response) turned out to be 13.2 µM. The molecule also registered a neurite branch in experiment [2] (induced untreated 0.74) of 0.92. This molecule also yielded a neurite process in experiment [2] (induced untreated 2.07) of 2.34. Also, the neurite length in experiment [2] (induced untreated 30.6 μm) was 40.7 μm. This molecule also registered a caspase-6 activity in the experiment with caspase-6 of 99.8%.

The values are drawn from PMC9953660, “Using ΔK280 TauRD Folding Reporter Cells to Screen TRKB Agonists as Alzheimer’s Disease Treatment Strategy” (Biomolecules, 2023).
